Entries after “also recorded” stand apart in the source; their conditions may differ.
Legend:
[1] = tested on: muscle-derived stromal cells (MDSC); test: MDSC migration through a transwell membrane; format: cell-based, human; settings: for migration of MDSC: 8 μm transwell, 36 hours, recombinant cytokine in human serum-containing media (FIG. 27B)
Procedure: Migration of 1×10^4 MDSC through an 8 μm pore transwell membrane over 36 hours, in response to fracture supernatant with the addition of AbTNF-α, AbIL-6 and AbIL-1β. The IgG^1 immunoglobulin was used as the antibody control. B: Migration in response to rhTNF-α, rhIL-6 and rhIL-1β in human serum-containing media. Results represent change in cell number, expressed as a percentage of the supernatant, or media only control. Each experiment was performed 3 times (n=3) using 3 fracture supernatants (in A). Results represent mean of 3 experiments ±SEM. *: P<0.05; **: P<0.01; ***: P<0.001; 1-way ANOVA with Bonferroni's multiple comparison test.
MDSC must be recruited to the fracture site from adjacent muscle. Next we assessed the efficacy of the pro-inflammatory cytokines in attracting MDSC in vitro using a transwell assay. 1×10^4 MDSC were seeded onto a 8 μm transwell membrane in serum free media. Next day, the transwell membrane was added to a well containing 10% human serum-containing media +IL-1β, IL6 and TNFα at the end concentrations shown. At 24 hrs the membrane was cleared of any cells on the seeded side, fixed and stained. IL-1β appeared not promote MDSC chemotaxis.
500 μl serum free media was added to each well of a 24 well plate. 8 μm pore transwell membranes (VWR International Ltd) were then added to the wells. 1×10^4 MDSC in serum free media were added to the upper chamber of each transwell membrane. At 12 hours the serum-free media was replaced with test or control media or supernatant and incubated at 37° C. for 36 hours. The upper chambers were then cleared of cells and cell debris using a cotton bud, in sweeping motions. The membrane was then washed and fixed using 10% neutral buffered formalin for 1 hour. After washing, the membrane was then added to a 1% crystal violet solution for 1 hour. After further washing, the membranes were viewed under light microscopy at 20 times magnification, using an Olympus CKX41 microscope with a QICAM camera, (QIMAGING, GT vision LLC). The number of cells present on the underside of the transwell membrane in any random field was counted 3 times and the mean calculated. Cell migration was calculated against the supernatant or human serum-containing (control) media and the number expressed as a percentage relative to the control media.

[2] = tested on: muscle-derived stromal cells (MDSC); test: Bone nodule formation by MDSC (alizarin red staining); format: cell-based, human; settings: Example 3; recombinant cytokine at optimal dose for first 3 days, human serum-containing media (FIG. 26E)
Description: (§1) FIG. 26 TNF-α and IL-6 promote osteogenic differentiation of MDSC A-D: ALP quantification assays after culture of 1×10^4 MDSC for 7 days in a 96-well plate in triplicate with: A: fracture supernatant, ±antibody neutralization of BMPs 2/4 7 and to TGF-β. The immunoglobulin isotype controls used included IgG^1 for AbBMP-2/4 and AbTGF-β, and IgG^2B for Ab-BMP-7. B: human serum containing culture medium with the addition of recombinant human BMPs and TGF-β. C: fracture supernatant±antibody neutralization of TNF-α, IL-6 and IL-1β. The IgG^1 immunoglobulin was used as the antibody isotype control. D: human serum-containing culture medium with the addition of recombinant human TNF-α, IL-6 and IL-1β. E: Alizarin red staining for bone nodule formation after culture of 1×10^4 MDSC in human serum-containing media. Recombinant human cytokine at the optimal dose indicated by D, was added for the first 3 days ONLY, and the cells were subsequently cultured in media for 32 days. A representative image from a single well is shown. All experiments were performed 3 times, in triplicate (n=3) using MDSC from 3 donors. Values for A-D represent a mean from 3 experiments ±SEM, using supernatant from 3 donors in A and C. *: P<0.05; **: P<0.01; ***: P<0.001; 1-way ANOVA with Bonferroni's multiple comparison test in A and C and with Dunnett's multiple comparison test against the media only control in B and D.
1×10^4 MDSC were added to wells of a 24-well plate in triplicate. The cells were cultured for 35-40 days in osteogenic media (DMEM with 10% fetal calf serum and 1% penicillin/streptomycin also containing 100 nM dexamethasone (SIGMA), 1 mM β-glycerol phosphate and […] ascorbic acid), supernatant or media containing recombinant cytokines (with one media change per week) the cells were fixed with 2 ml 10% neutral buffered formalin at room temperature for 15 min. The plate was then washed twice with excess PBS. 1 ml filtered 40 mM alizarin red solution (pH 4.1) was added to each well and agitated at room temperature for 30 minutes. The excess dye was then aspirated and the plate washed four times in distilled water with gentle agitation. Finally, the plates were turned upside-down on paper to dry. Bone nodules appeared red under light microscopy. Images were taken at 20 times magnification and performed as above.

[3] = tested on: muscle-derived stromal cells (MDSC); test: MDSC proliferation (CellTiter-Glo luminescent cell viability assay); format: cell-based, human; settings: Example 3; for MDSC proliferation: 1, 3 and 5 days in human serum-containing media ± recombinant human cytokine (FIG. 28); for cell proliferation in excess of the media-only control: recombinant human BMPs, data not shown
Procedure: CellTiter-Glo® luminescent cell viability assay for MDSC in culture with A: TNF-α, B: IL-6 and C: IL-1β. 2.5×10^3 cells were cultured in triplicate for 1, 3 and 5 days in human serum-containing media ± recombinant human cytokine at the concentration indicated. The number of viaBIe cells in culture was determined using the assay, where luminescent signal is directly proportional to the concentration of ATP from viaBIe cells.
In order to test this hypothesis, proliferation of MDSC in human serum-containing media with rhTNF-α, rhIL-6 and rhIL-1β was tested using the CellTiter-Glo® luminescent cell viability assay was used (Promega Corp., Madison, Wis.).
This method assays the number of viaBIe cells in culture, by measuring adenosine triphosphate (ATP), where the luminescent signal is directly proportional to the number of ATP present.

[4] = tested on: muscle-derived stromal cells (MDSC); test: ALP quantification assay, osteogenic differentiation of cultured MDSC; format: cell-based, human; settings: for ALP expression (osteogenic differentiation) in cultured MDSC: Example 1, exogenous recombinant human factor added to MDSC culture (FIG. 8, 10, 12); for ALP expression by MDSC: 7 days in human serum-containing media with recombinant human factor (FIG. 26B, 26D)
Description: as §1, with “The” for “FIG. 26 TNF-α and IL-6 promote osteogenic differentiation of MDSC A-D: ALP quantification assays after culture of 1×10^4 MDSC for 7 days in a 96-well plate in triplicate with: A: fracture supernatant, ±antibody neutralization of BMPs 2/4 7 and to TGF-β. The”, “Recombinant human cytokine at the optimal dose indicated by D, was added for the first 3 days ONLY, and the cells were subsequently cultured in media for 32 days.” left out
To investigate the fracture-derived stimulus for osteogenic differentiation of MDSC, fracture supernatants were prepared using human tibial fracture fragments obtained within 24 hours of injury (ethics approval number—COREC No: 07/Q0411/30). […] Bone fragments were obtained from either fractured tibial fragments or non-traumatically cut bone slices. These were then incubated in serum free DMEM+Glutamax media for 24 hours. The supernatant was then filter sterilised to remove any contaminants and cellular debris. MDSC were then cultured in the presence of either control media, osteogenic media, fracture supernatant or non-fracture supernatant for 7 days before lysis and quantification of ALP levels.
1×10^4 human MDSC were added to wells of a 96 well plate in triplicate. At 24 hrs the media was pipetted off and replaced by 200 μl test media. The media was changed every 3 days. At 7 days the media was removed and the cells lysed in 20 μl NP-40 lysis buffer. An ALP quantification assay (WAKO pure chemical Ltd.) was used. Calibration solution from the assay was serially diluted to make concentrations of 0.25, 0.125 and 0.0625 mmol/L. To empty wells, 20 μl of each calibration solution was added. To another, dH2O was added. 100 μl reagent (1 taBIet per 5 ml buffer solution) was added to each well, and incubated at 37° C. for 20 minutes. 80 μl stop solution was then added to each well and the plate was read using an ELISA spectrometer at 405 nm wavelength. The concentration of ALP in the test wells was extrapolated from the standard curve.

[5] = tested on: murine open tibial fracture; test: Murine open tibial fracture model, periosteally stripped (histology, CT scans); format: in vivo, C57BI/6 mice; settings: 28 days post injury; local administration at fracture site (TNFα 50 ng/kg and HMGB1 at time of fracture and 24 hr later) (FIG. 19, 30)

## IL-1β: pro-inflammatory cytokine, recombinant human IL-1β
[1]; Example 3
  migration of MDSC: did not appear to promote MDSC migration
[2]
  bone nodule formation by MDSC: did not stimulate bone nodule formation
[3]
  MDSC proliferation: do not promote MDSC proliferation
[4]
  ALP expression (osteogenic differentiation) in cultured MDSC: dose-dependent stimulation of ALP expression
[4]; Example 3, variable between donor cell populations (FIG. 26D)
  concentration of peak ALP expression by MDSC: 100 µg/mL

## IL-6: pro-inflammatory cytokine, recombinant human IL-6
[1]; Example 1, transwell, 10% human serum-containing media, 24 hrs (FIG. 14)
  chemotaxis / migration of MDSC: promote chemotaxis of MDSC
[1]; Example 3
  migration of MDSC: chemo attractant for MDSC
[1]; Example 3, transwell, 36 hours (FIG. 27B)
  optimal concentration for MDSC migration: 1 ng/mL
[2]
  bone nodule formation by MDSC: promoted de novo bone formation
[3]
  MDSC proliferation: do not promote MDSC proliferation
[4]
  ALP expression (osteogenic differentiation) in cultured MDSC: dose-dependent stimulation of ALP expression
[4]; Example 3
  ALP expression by MDSC: increased with the dose through the range tested

## TGF-β
[4]
  ALP expression (osteogenic differentiation) in cultured MDSC: promotes osteogenic differentiation
[4]; Example 3
  ALP expression by MDSC: did not induce ALP expression

B1: BMP4: recombinant human bone morphogenetic protein 4 (protein, UniProt P12644 293-408, looked up)
Bone morphogenetic protein 4: SPKHHSQRARKKNKNCRRHSLYVDFSDVGWNDWIVAPPGYQAFYCHGDCPFPLADHLNSTNHAIVQTLVNSVNSSIPKACCVPTELSAISMLYLDEYDKVVLKNYQEMVVEGCGCR
[3]
  cell proliferation in excess of the media-only control: did not induce cell proliferation
[4]; Example 3
  ALP expression by MDSC: did not induce ALP expression

B2: BMP7: recombinant human bone morphogenetic protein 7 (protein, UniProt P18075 293-431, looked up)
Bone morphogenetic protein 7: STGSKQRSQNRSKTPKNQEALRMANVAENSSSDQRQACKKHELYVSFRDLGWQDWIIAPEGYAAYYCEGECAFPLNSYMNATNHAIVQTLVHFINPETVPKPCCAPTQLNAISVLYFDDSSNVILKKYRNMVVRACGCH
[3]
  cell proliferation in excess of the media-only control: did not induce cell proliferation
[4]
  ALP expression (osteogenic differentiation) in cultured MDSC: promotes osteogenic differentiation
[4]; Example 3
  ALP expression by MDSC: did not induce ALP expression

B3: IFN-γ: proinflammatory cytokine, recombinant human Interferon-gamma (protein, UniProt P01579 24-161, looked up)
Interferon gamma: QDPYVKEAENLKKYFNAGHSDVADNGTLFLGILKNWKEESDRKIMQSQIVSFYFKLFKNFKDDQSIQKSVETIKEDMNVKFFNSNKKKRDDFEKLTNYSVTDLNVQRKAIHELIQVMAELSPAAKTGKRKRSQMLFRG
[4]
  ALP expression (osteogenic differentiation) in cultured MDSC: modest dose-dependent stimulation of osteogenesis

B4: HMGB1: damage associated molecular pattern molecule (alarmin), RAGE ligand protein (protein, UniProt P09429 1-215, looked up)
High mobility group protein B1: MGKGDPKKPRGKMSSYAFFVQTCREEHKKKHPDASVNFSEFSKKCSERWKTMSAKEKGKFEDMAKADKARYEREMKTYIPPKGETKKKFKDPNAPKRPPSAFFLFCSEYRPKIKGEHPGLSIGDVAKKLGEMWNNTAADDKQPYEKKAAKLKEKYEKDIAAYRAKGKPDAAKKGVVKAEKSKKKKEEEEDEEDEEDEEEEEDEEDEDEEEDDDDE
[5]
  healing of tibial fractures by CT scans: statistically significantly enhanced healing; also recorded: accelerates fracture healing
